The supplement of paper PMC10307832

compound: Cc1nc(NC(=O)N2CCC[C@H]2C(N)=O)sc1-c1ccnc(C(C)(C)C(F)(F)F)c1 [Alpelisib] + CS(=O)(=O)CCNCc1ccc(-c2ccc3ncnc(Nc4ccc(OCc5cccc(F)c5)c(Cl)c4)c3c2)o1 [Lapatinib] (partner 2 µM); assay: relative viability (nuclei count vs DMSO), 5 days (fraction); higher = more cells survive; conditions: first compound 0.04 µM
Outline: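 Lung cancer cell lines were seeded in 1536-well plates and dosed by pin tool the next day, with either a single drug or a fixed anchor-drug dose combined with five library-drug doses (not always all listed) spaced in √10 steps. Five days later, one step fixed the cells and stained their nuclei (final 0.05% Triton X-100, 1% formaldehyde, 1 ug/ml Hoechst), and nuclei were counted on 4× images. Relative viability is the nuclei count in treated wells divided by the count in vehicle wells, and each value is the median of duplicate plates.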

Compared with COR-L23, HCC-15 is lower in relative viability: 1.03 for the first, 0.897 for the second.

First: NCI-H1944
Second: EMC-BAC-2
The relative viability of the first is lower: 0.815 for the first, 0.826 for the second.

Compared with NCI-H1395, LC-2-ad is higher in relative viability: 0.88 for the first, 0.958 for the second.

Compared with NCI-H2085, NCI-H727 is higher in relative viability: 0.742 for the first, 0.831 for the second.

First: NCI-H647
Second: HARA
The relative viability of the first is higher: 0.959 for the first, 0.747 for the second.

First: NCI-H3122
Second: NCI-H358
The relative viability of the first is higher: 1.01 for the first, 0.442 for the second.

Going from CAL-12T to COR-L 105, the relative viability falls from 0.678 to 0.338.

Going from LCLC-97TM1 to NCI-H520, the relative viability falls from 0.75 to 0.712.

First: NCI-H2228
Second: NCI-H23
The relative viability of the first is lower: 1.02 for the first, 1.09 for the second.

Compared with HCC-827, NCI-H2347 is higher in relative viability: 0.19 for the first, 0.991 for the second.

Going from LXF-289 to NCI-H1666, the relative viability falls from 0.865 to 0.668.

Compared with RERF-LC-KJ, NCI-H650 is higher in relative viability: 0.795 for the first, 0.84 for the second.

same assay, conditions: first compound 0.1265 µM

Going from A-427 to NCI-H2009, the relative viability rises from 0.914 to 1.

Compared with ABC-1, EKVX is lower in relative viability: 0.988 for the first, 0.34 for the second.

First: NCI-H2087
Second: NCI-H1734
The relative viability of the first is lower: 0.978 for the first, 0.989 for the second.

Going from LU99A to NCI-H460, the relative viability rises from 0.917 to 0.948.

First: NCI-H2170
Second: SK-LU-1
The relative viability of the first is lower: 0.273 for the first, 0.707 for the second.

Going from COR-L23 to HCC-15, the relative viability falls from 0.896 to 0.858.

Compared with NCI-H1944, EMC-BAC-2 is lower in relative viability: 1.04 for the first, 0.844 for the second.

Going from NCI-H1395 to LC-2-ad, the relative viability rises from 0.909 to 1.01.

First: NCI-H2085
Second: NCI-H727
The relative viability of the first is lower: 0.624 for the first, 0.766 for the second.

Going from NCI-H647 to HARA, the relative viability falls from 1.14 to 0.699.

Going from NCI-H3122 to NCI-H358, the relative viability falls from 1.02 to 0.382.

Going from COR-L 105 to LCLC-97TM1, the relative viability rises from 0.391 to 0.854.

Going from NCI-H520 to NCI-H2228, the relative viability rises from 0.765 to 0.788.

Compared with NCI-H23, HCC-827 is lower in relative viability: 0.845 for the first, 0.192 for the second.

Going from NCI-H2347 to LXF-289, the relative viability falls from 0.989 to 0.921.

First: NCI-H1666
Second: RERF-LC-KJ
The relative viability of the first is lower: 0.381 for the first, 0.773 for the second.

NCI-H650 was tested, and the relative viability was 0.538.

same assay, conditions: first compound 0.4 µM

First: A-427
Second: NCI-H2009
The relative viability of the first is lower: 0.967 for the first, 1.11 for the second.

First: ABC-1
Second: EKVX
The relative viability of the first is higher: 1.17 for the first, 0.184 for the second.

Going from NCI-H2087 to NCI-H1734, the relative viability falls from 1.26 to 1.11.

First: LU99A
Second: NCI-H460
The relative viability of the first is lower: 1.02 for the first, 1.03 for the second.

Going from NCI-H2170 to SK-LU-1, the relative viability rises from 0.239 to 0.858.

First: COR-L23
Second: HCC-15
The relative viability of the first is higher: 1.14 for the first, 0.94 for the second.

Going from NCI-H1944 to EMC-BAC-2, the relative viability rises from 0.763 to 0.84.

Compared with NCI-H1395, LC-2-ad is lower in relative viability: 1.15 for the first, 0.975 for the second.

First: NCI-H2085
Second: NCI-H727
The relative viability of the first is lower: 0.839 for the first, 0.906 for the second.

Compared with NCI-H647, HARA is lower in relative viability: 1.35 for the first, 0.46 for the second.

Going from NCI-H3122 to NCI-H358, the relative viability falls from 1.07 to 0.389.

Compared with CAL-12T, COR-L 105 is lower in relative viability: 0.658 for the first, 0.364 for the second.

Compared with LCLC-97TM1, NCI-H520 is higher in relative viability: 0.656 for the first, 0.906 for the second.

Compared with NCI-H2228, NCI-H23 is lower in relative viability: 1.07 for the first, 1.04 for the second.

Going from HCC-827 to NCI-H2347, the relative viability rises from 0.211 to 1.33.

First: LXF-289
Second: NCI-H1666
The relative viability of the first is higher: 0.958 for the first, 0.682 for the second.

Going from RERF-LC-KJ to NCI-H650, the relative viability rises from 0.867 to 0.876.

same assay, conditions: first compound 1.265 µM

First: A-427
Second: NCI-H2009
The relative viability of the first is higher: 0.926 for the first, 0.89 for the second.

First: ABC-1
Second: EKVX
The relative viability of the first is higher: 0.706 for the first, 0.174 for the second.

Going from NCI-H2087 to NCI-H1734, the relative viability rises from 0.703 to 0.771.

Compared with LU99A, NCI-H460 is lower in relative viability: 0.666 for the first, 0.662 for the second.

First: NCI-H2170
Second: SK-LU-1
The relative viability of the first is lower: 0.248 for the first, 0.767 for the second.

Compared with COR-L23, HCC-15 is higher in relative viability: 0.781 for the first, 0.823 for the second.

Compared with NCI-H1944, EMC-BAC-2 is higher in relative viability: 0.621 for the first, 0.68 for the second.

Going from NCI-H1395 to LC-2-ad, the relative viability falls from 0.75 to 0.645.

First: NCI-H2085
Second: NCI-H727
The relative viability of the first is higher: 0.635 for the first, 0.578 for the second.

Going from NCI-H647 to HARA, the relative viability falls from 0.99 to 0.305.

Compared with NCI-H3122, NCI-H358 is lower in relative viability: 1.02 for the first, 0.297 for the second.

Going from COR-L 105 to LCLC-97TM1, the relative viability rises from 0.287 to 0.686.

First: NCI-H520
Second: NCI-H2228
The relative viability of the first is lower: 0.669 for the first, 0.794 for the second.

First: NCI-H23
Second: HCC-827
The relative viability of the first is higher: 0.621 for the first, 0.179 for the second.

Going from NCI-H2347 to LXF-289, the relative viability falls from 0.873 to 0.832.

Going from NCI-H1666 to RERF-LC-KJ, the relative viability rises from 0.475 to 0.64.

For NCI-H650, the relative viability was 0.683.

same assay, conditions: first compound 4 µM

First: A-427
Second: NCI-H2009
The relative viability of the first is higher: 1.04 for the first, 0.889 for the second.

Compared with ABC-1, EKVX is lower in relative viability: 0.717 for the first, 0.175 for the second.

Compared with NCI-H2087, NCI-H1734 is lower in relative viability: 0.97 for the first, 0.373 for the second.

Going from LU99A to NCI-H460, the relative viability falls from 0.56 to 0.439.

First: NCI-H2170
Second: SK-LU-1
The relative viability of the first is lower: 0.269 for the first, 0.704 for the second.

Compared with COR-L23, HCC-15 is higher in relative viability: 0.606 for the first, 0.725 for the second.

Going from NCI-H1944 to EMC-BAC-2, the relative viability rises from 0.451 to 0.628.

Compared with NCI-H1395, LC-2-ad is lower in relative viability: 0.921 for the first, 0.542 for the second.

Compared with NCI-H2085, NCI-H727 is lower in relative viability: 0.623 for the first, 0.443 for the second.

Going from NCI-H647 to HARA, the relative viability falls from 0.756 to 0.209.

Going from NCI-H3122 to NCI-H358, the relative viability falls from 0.919 to 0.368.

Compared with CAL-12T, COR-L 105 is lower in relative viability: 0.496 for the first, 0.337 for the second.

First: LCLC-97TM1
Second: NCI-H520
The relative viability of the first is lower: 0.387 for the first, 0.631 for the second.

Going from NCI-H2228 to NCI-H23, the relative viability rises from 0.486 to 0.839.

First: HCC-827
Second: NCI-H2347
The relative viability of the first is lower: 0.188 for the first, 0.83 for the second.

Compared with LXF-289, NCI-H1666 is lower in relative viability: 0.956 for the first, 0.356 for the second.

Compared with RERF-LC-KJ, NCI-H650 is higher in relative viability: 0.735 for the first, 0.869 for the second.
